*1 amine or outer side, *2 acyl side, *3 side chain or, on linkers, in order; H or OH if unused. Where no end group is shown, it is not given here. [ ]: non-standard residue; d: D form. The star is where a group is joined. Pro(trans-4-NH2) = O=C([C@@H]1C[C@@H](N[*:3])CN1[*:1])[*:2]; Pro(4-methylene) = C=C1CN[C@H](C(=O)O)C1; Pro(cis-4-F) = O=C(O)[C@@H]1C[C@H](F)CN1; Pro(4,4-F2) = O=C(O)[C@@H]1CC(F)(F)CN1; Pro(4,4-Me2) = CC1(C)CN[C@H](C(=O)O)C1; Hyp = O=C(O)[C@@H]1C[C@@H](O)CN1; dHyp = O=C(O)[C@H]1C[C@H](O)CN1; Phg = N[C@H](C(=O)O)c1ccccc1; OiPr = CC(C)O*
Tested on: not listed separately
Test: Stability of the peptide: content analysis by HPLC in aqueous solution under harsh conditions
Format: physicochemical
Details: 40° C., 75% humidity, 7 days
Method: In order to evaluate the stability of the peptide of the present invention, an experiment was performed as follows.
The stability of the peptide was confirmed through content analysis in an aqueous solution at 40° C., 75% humidity, and harsh conditions, and was analyzed using HPLC under the following conditions. • Analysis column: C18 (4.6 Y 250 mm, 5 μm, YMC Hydrosphere) • Analysis wavelength: ultraviolet absorption spectrophotometer (210 nm) • Injection volume/Flow rate: 10 μL/0.8 mL/min • Column temperature: 45° C. • Mobile phase: 0.1 M phosphate buffer methanol mixture (83:17)

Substance	Content after 7 days [%]
Hyp-Gly-Gln-Glu-phenyl-Gly-Leu-Ala ([Hyp]GQE[Phg]LA) [Example 45]	98.147

Same assay, conditions: 40° C., 75% humidity, after 7 days

Substance	Decrease rate [%]
Hyp-Gly-Gln-Glu-phenyl-Gly-Leu-Ala ([Hyp]GQE[Phg]LA) [Example 45]	0.439

Same assay, conditions: HPLC, initial

Substance	Initial content [%]
Hyp-Gly-Gln-Glu-phenyl-Gly-Leu-Ala ([Hyp]GQE[Phg]LA) [Example 45]	98.586

Tested on: choroidal neovascularization (CNV)
Test: Inhibition of choroidal neovascularization: optical coherence tomography, size of CNV lesion, intravitreal injection
Format: in vivo, C57BL/6 mice
Details: laser-induced CNV; 1 μL intravitreal, peptide 10 mg/mL or aflibercept 20 mg/mL; ten days after administration; OCT
Description: (§1) The CNV animal model used in the present invention is a mouse model in which lesions are induced by irradiating a laser to the choroid of C57BL/6 mice using a laser slit system. The laser-induced CNV model, first described in 1979, uses photocoagulation to disturb Bruch's membrane to induce the growth of choroidal neovascularization into the retina area, and it is similar in development to neovascular disease in the human retina, that is, wet macular degeneration (wet AMD), in that neovascularity arises from the choroid. In addition, the laser-induced CNV model was successful in predicting the clinical efficacy of anti-vascular endothelial growth factor (VEGF) treatment for neovascular AMD, and is an animal model used in the development stage of existing therapeutic agents (Gong Y, Li J, Sun Y, Fu Z, Liu C H, Evans L, et al. (2015) Optimization of an Image-Guided Laser-Induced Choroidal Neovascularization Model in Mice. PLOS ONE 10 (7)).
(§2) In order to evaluate the efficacy of the peptide of the present invention to inhibit the choroidal neovascularization (CNV), an experiment was performed as follows.
The eyes of 7-8 week old C57BL/6 mice were instilled with a mydriatic agent to dilate the pupils, and the mice were anesthetized by intraperitoneal injection of ketamine (50 mg/kg) and rompun (23.32 mg/kg). A slit-lamp laser injection system was used to irradiate the laser to the choroid of each eye of the mouse four times in the 12 o'clock, 3 o'clock, 6 o'clock, and 9 o'clock directions. At this time, the laser irradiation conditions were 532 nm, 80 msec, and 240 mW. Immediately after laser irradiation, 1 μL of each peptide at a concentration of 10 mg/mL or aflibercept at a concentration of 20 mg/mL, which was dissolved in PBS, was injected into the vitreous body using a syringe. Ten days after drug administration, the mice were anesthetized, and the CNV lesions induced by laser were calculated and expressed as μm^2 using the ImageJ program by transmitting an OCT beam for each burn. The results of all tests are expressed as mean±standard deviation, and significance was verified using one-way ANOVA and Kruskal-wallis test.

Substance	Size of lesion
Hyp-Gly-Gln-Asp-Ala ([Hyp]GQDA) [Example 3]	6,491 μm^2
Hyp-Gly-Gln-Asp-Val ([Hyp]GQDV) [Example 1]	5,636 μm^2
Hyp-Gly-Gln-Asp-Val-Leu ([Hyp]GQDVL) [Example 7]	6,046 μm^2
D-Hyp-Gly-Gln-Asp-Gly-Leu ([dHyp]GQDGL) [Example 13]	6,395 μm^2
Hyp-Gly-Gln-Asp-Gly-Leu-Ala-IPE ([Hyp]GQDGLA-OiPr) [Example 17]	5,978 μm^2
4-methylene-Pro-Gly-Gln-Asp-Gly-Leu-Ala ([Pro(4-methylene)]GQDGLA) [Example 34]	8,603 μm^2
Hyp-Gly-Gln-Asp-Leu-Leu-Ala ([Hyp]GQDLLA) [Example 15]	6,672 μm^2
Hyp-Gly-Gln-Asp-Val-Leu-Ala ([Hyp]GQDVLA) [Example 14]	5,407 μm^2

Tested on: choroidal neovascularization (CNV)
Test: Inhibition of choroidal neovascularization: fluorescence value (CTF) at the CNV site by FFA, laser-induced CNV model, intravitreal injection
Format: in vivo, C57BL/6 mice
Details: intravitreal, ten days after administration
Description: as §1, §2
The eyes of 7-8 week old C57BL/6 mice were instilled with a mydriatic agent to dilate the pupils, and the mice were anesthetized by intraperitoneal injection of ketamine (50 mg/kg) and rompun (23.32 mg/kg). A slit-lamp laser injection system was used to irradiate the laser to the choroid of each eye of the mouse four times in the 12 o'clock, 3 o'clock, 6 o'clock, and 9 o'clock directions. At this time, the laser irradiation conditions were 532 nm, 80 msec, and 240 mW. Immediately after laser irradiation, 1 μL of each peptide at a concentration of 10 mg/mL or aflibercept at a concentration of 20 mg/mL, which was dissolved in PBS, was injected into the vitreous body using a syringe. Ten days after drug administration, the mice were anesthetized, and 2% fluorescein was administered to the abdominal cavity to stain blood vessels. The retina was photographed 2 to 3 minutes after fluorescein administration. The size and fluorescence value of CNV lesions induced by laser were measured using the ImageJ program, and in order to reduce the differences between subjects, the CTF (corrected total fluorescence) was calculated by removing the background, and the values of each group were compared. The results of all tests are expressed as mean±standard deviation, and significance was verified using one-way ANOVA and Kruskal-wallis test.

Substance	CNV inhibitory efficacy from fluorescence value of the CNV site (in words)
cis-4F-Pro-Gly-Gln-Asp-Gly-Leu ([Pro(cis-4-F)]GQDGL) [Example 27]	very excellent inhibitory efficacy
Hyp-Gly-Gln-Asp-Val ([Hyp]GQDV) [Example 1]	very excellent inhibitory efficacy
Hyp-Gly-Gln-Asp-Ala-Leu ([Hyp]GQDAL) [Example 9]	very excellent inhibitory efficacy
Hyp-Gly-Gln-Asp-Val-Leu ([Hyp]GQDVL) [Example 7]	very excellent inhibitory efficacy
trans-4NH2-Pro-Gly-Gln-Asp-Gly ([Pro(trans-4-NH2)]GQDG) [Example 23]	very excellent inhibitory efficacy
D-Hyp-Gly-Gln-Asp-Gly-Leu ([dHyp]GQDGL) [Example 13]	very excellent inhibitory efficacy
Hyp-Gly-Gln-Asp-Gly-Leu-Ala-IPE ([Hyp]GQDGLA-OiPr) [Example 17]	very excellent inhibitory efficacy
Hyp-Gly-Gln-Asp-Leu-Leu ([Hyp]GQDLL) [Example 8]	very excellent inhibitory efficacy
Hyp-Gly-Gln-Asp-Leu-Leu-Ala ([Hyp]GQDLLA) [Example 15]	very excellent inhibitory efficacy
Hyp-Gly-Gln-Asp-Val-Leu-Ala ([Hyp]GQDVLA) [Example 14]	very excellent inhibitory efficacy

Same assay, conditions: laser-induced CNV; 1 μL intravitreal, peptide 10 mg/mL or aflibercept 20 mg/mL; ten days after administration; lower CTF = less CNV

Substance	CTF (corrected total fluorescence) value
Hyp-Gly-Gln-Asp-Ala-Leu-Ala ([Hyp]GQDALA) [Example 16]	+ (+: 300,000 to 800,000)
[Hyp]GQ[dD]G [Example 5]	+ (+: 300,000 to 800,000)
Hyp-Gly-Gln-Asp-Ala ([Hyp]GQDA) [Example 3]	+ (+: 300,000 to 800,000)
4,4-dimethyl Pro-Gly-Gln-Asp-Gly-Leu-Ala ([Pro(4,4-Me2)]GQDGLA; also: X1: 4,4-dimethyl-Pro (name) or 4-methylene-L-proline) [Example 35]	+ (+: 300,000 to 800,000)
cis-4F-Pro-Gly-Gln-Asp-Gly-Leu ([Pro(cis-4-F)]GQDGL) [Example 27]	+++ (+++: 100,000 to 200,000)
Hyp-Gly-Gln-Asp-Val ([Hyp]GQDV) [Example 1]	+++ (+++: 100,000 to 200,000)
4,4-dimethyl Pro-Gly-Gln-Asp-Gly-Leu ([Pro(4,4-Me2)]GQDGL) [Example 31]	+ (+: 300,000 to 800,000)
4,4-difluoro-Pro-Gly-Gln-Asp-Gly ([Pro(4,4-F2)]GQDG) [Example 24]	+ (+: 300,000 to 800,000)
Hyp-Gly-Gln-Asp-Ala-Leu ([Hyp]GQDAL) [Example 9]	++ (++: 200,000 to 300,000)
Hyp-Gly-Gln-Asp-Gly-D-Leu-Ala ([Hyp]GQDG[dL]A) [Example 20]	+ (+: 300,000 to 800,000)
Hyp-Gly-Gln-Asp-Val-Leu ([Hyp]GQDVL) [Example 7]	++ (++: 200,000 to 300,000)
trans-4NH2-Pro-Gly-Gln-Asp-Gly ([Pro(trans-4-NH2)]GQDG) [Example 23]	++ (++: 200,000 to 300,000)
D-Hyp-Gly-Gln-Asp-Gly-Leu ([dHyp]GQDGL) [Example 13]	++ (++: 200,000 to 300,000)
[Hyp]G[dQ]DG [Example 4]	+ (+: 300,000 to 800,000)
cis-4F-Pro-Gly-Gln-Asp-Gly-Leu-Ala ([Pro(cis-4-F)]GQDGLA) [Example 33]	+ (+: 300,000 to 800,000)
Hyp-Gly-Gln-Glu-phenyl-Gly-Leu-Ala ([Hyp]GQE[Phg]LA) [Example 45]	+ (+: 300,000 to 800,000)
Hyp-Gly-Gln-Asp-Gly-Leu-Ala-IPE ([Hyp]GQDGLA-OiPr) [Example 17]	++ (++: 200,000 to 300,000)
Hyp-Gly-Gln-Asp-Leu-Leu ([Hyp]GQDLL) [Example 8]	++ (++: 200,000 to 300,000)
4,4-dimethyl Pro-Gly-Gln-Asp-Gly ([Pro(4,4-Me2)]GQDG) [Example 26]	+ (+: 300,000 to 800,000)
trans-4NH2-Pro-Gly-Gln-Asp-Gly-Leu ([Pro(trans-4-NH2)]GQDGL) [Example 28]	+ (+: 300,000 to 800,000)

Substance	CTF (corrected total fluorescence) value
cis-4F-Pro-Gly-Gln-Asp-Gly ([Pro(cis-4-F)]GQDG) [Example 22]	+ (+: 300,000 to 800,000)
4-methylene-Pro-Gly-Gln-Asp-Gly-Leu ([Pro(4-methylene)]GQDGL) [Example 30]	+ (+: 300,000 to 800,000)
4,4-difluoro-Pro-Gly-Gln-Asp-Gly-Leu ([Pro(4,4-F2)]GQDGL) [Example 29]	+ (+: 300,000 to 800,000)
4-methylene-Pro-Gly-Gln-Asp-Gly ([Pro(4-methylene)]GQDG) [Example 25]	+ (+: 300,000 to 800,000)
Hyp-Gly-Gln-Asp-Gly-Leu-D-Ala ([Hyp]GQDGL[dA]) [Example 21]	+ (+: 300,000 to 800,000)
Hyp-Gly-Gln-Asp-Leu ([Hyp]GQDL) [Example 2]	+ (+: 300,000 to 800,000)
Hyp-Gly-Gln-D-Asp-Gly-Leu ([Hyp]GQ[dD]GL) [Example 11]	+ (+: 300,000 to 800,000)
[dHyp]GQDG [Example 6]	+ (+: 300,000 to 800,000)
[Hyp]GQ[dD]GLA [Example 19]	+ (+: 300,000 to 800,000)
4-methylene-Pro-Gly-Gln-Asp-Gly-Leu-Ala ([Pro(4-methylene)]GQDGLA) [Example 34]	+ (+: 300,000 to 800,000)
Hyp-Gly-Gln-Glu-Gly ([Hyp]GQEG) [Example 36]	+ (+: 300,000 to 800,000)
Hyp-Gly-Gln-Asp-Leu-Leu-Ala ([Hyp]GQDLLA) [Example 15]	++ (++: 200,000 to 300,000)
[Hyp]G[dQ]DGLA [Example 18]	+ (+: 300,000 to 800,000)
Hyp-Gly-Gln-Asp-Val-Leu-Ala ([Hyp]GQDVLA) [Example 14]	++ (++: 200,000 to 300,000)
D-Hyp-Gly-Gln-Asp-Gly-Leu-Ala ([dHyp]GQDGLA) [Example 32]	+ (+: 300,000 to 800,000)
Hyp-Gly-Gln-Glu-Leu-Leu ([Hyp]GQELL) [Example 38]	+ (+: 300,000 to 800,000)
[Hyp]G[dQ]DGL [Example 10]	+ (+: 300,000 to 800,000)
Hyp-Gly-Gln-Glu-Val-Leu ([Hyp]GQEVL) [Example 39]	+ (+: 300,000 to 800,000)
Hyp-Gly-Gln-Asp-Gly-D-Leu ([Hyp]GQDG[dL]) [Example 12]	+ (+: 300,000 to 800,000)

From patent US20260232753A1, “COMPOSITION FOR TREATING MACULAR DEGENERATION COMPRISING NOVEL PEPTIDE” (EYEBIOKOREA, INC., priority 2021, published 2026)
